Test results as given in PubChem BioAssay (NCI).
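96-well plates; 48 h exposure; 5 concentrations. Endpoints by linear interpolation between flanking doses. Not reached: highest tested concentration assigned. Here, GI50 denotes the concentration required for 50% inhibition of growth. TGI denotes the concentration required for complete inhibition of growth.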

Columns and labels:
Assay in all cases: inhibition of tumour cell growth, NCI panel, 48 h
[1] = system: UO-31 renal
[2] = system: SK-OV-3 ovarian
[3] = system: NCI-H226 lung
[4] = system: DU-145 prostate
[5] = system: MALME-3M melanoma
[6] = system: SNB-75 CNS
[7] = system: SW-620 colon
[8] = system: MDA-MB-231 breast
[9] = system: SK-MEL-2 melanoma
[10] = system: HOP-92 NSCLC
[11] = system: A549 NSCLC
[12] = system: CAKI-1 renal
[13] = system: K-562 leukemia
[14] = system: KM12 colon
[15] = system: COLO 205 colon
[16] = system: MOLT-4 leukemia
[17] = system: CCRF-CEM leukemia
[18] = system: IGROV1 ovarian
[19] = system: TK-10 renal
[20] = system: SK-MEL-5 melanoma
[21] = system: HCC-2998 colon
[22] = system: MCF7 breast
[23] = system: RXF 393 renal
[24] = system: SNB-19 CNS
[25] = system: RPMI-8226 leukemia
[26] = system: SR leukemia
[27] = system: SK-MEL-28 melanoma
[28] = system: MDA-MB-435
[29] = system: EKVX NSCLC
[30] = system: OVCAR-4 ovarian
[31] = system: ACHN renal
[32] = system: HCT-116 colon
[33] = system: T-47D breast
[34] = system: PC-3 prostate
[35] = system: BT-549 breast
[36] = system: HT29 colon
[37] = system: SF-268 CNS
[38] = system: UACC-257 melanoma
[39] = system: HS 578T breast
[40] = system: 786-0 renal
[41] = system: OVCAR-5 ovarian
[42] = system: A498 renal
[43] = system: SF-539 CNS
[44] = system: NCI-H522 lung
[45] = system: LOX IMVI melanoma
[46] = system: HCT-15 colon
[47] = system: SN12C renal
[48] = system: SF-295 CNS
[49] = system: NCI-H23 lung
[50] = system: HL-60(TB) leukemia
[51] = system: HOP-62 NSCLC
[52] = system: NCI-H460 lung
[53] = system: M14 melanoma
[54] = system: NCI/ADR-RES ovarian
[55] = system: U251 CNS
[56] = system: UACC-62 melanoma
[57] = system: OVCAR-8 ovarian

## NS(=O)(=O)c1ccc(Nc2nc(N/N=C/c3ccccn3)nc(Nc3ccccc3)n2)cc1
[1]
  GI50: 1680 nM
  TGI: 4910 nM
[2]
  GI50: 773 nM
  TGI: 3920 nM
[3]
  GI50: 1070 nM
  TGI: 5970 nM
[4]
  GI50: 855 nM
  TGI: 4900 nM
[5]
  GI50: 1000 nM
  TGI: 2510 nM
[6]
  GI50: 1210 nM
  TGI: 2630 nM
[7]
  GI50: 786 nM
  TGI: > 100000 nM
[8]
  GI50: 620 nM
  TGI: 7060 nM
[9]
  GI50: 1280 nM
  TGI: 2670 nM
[10]
  GI50: 853 nM
  TGI: 4820 nM
[11]
  GI50: 2290 nM
  TGI: 5360 nM
[12]
  GI50: 701 nM
  TGI: 4890 nM
[13]
  GI50: 433 nM
  TGI: > 100000 nM
[14]
  GI50: 2190 nM
  TGI: 5140 nM
[15]
  GI50: 523 nM
  TGI: 1950 nM
[16]
  GI50: 495 nM
  TGI: > 39700 nM
[17]
  GI50: 395 nM
  TGI: > 100000 nM
[18]
  GI50: 1020 nM
  TGI: 5110 nM
[19]
  GI50: 1100 nM
  TGI: 5260 nM
[20]
  GI50: 1020 nM
  TGI: 2340 nM
[21]
  GI50: 703 nM
  TGI: 3480 nM
[22]
  GI50: 1300 nM
  TGI: 3240 nM
[23]
  GI50: 1240 nM
  TGI: 2910 nM
[24]
  GI50: 947 nM
  TGI: > 27400 nM
[25]
  GI50: 2400 nM
  TGI: 6010 nM
[26]
  GI50: 342 nM
  TGI: > 100000 nM
[27]
  GI50: 809 nM
  TGI: 2300 nM
[28]
  GI50: 917 nM
  TGI: 2390 nM
[29]
  GI50: 1020 nM
  TGI: 5300 nM
[30]
  GI50: 460 nM
  TGI: 2590 nM
[31]
  GI50: 1960 nM
  TGI: 5470 nM
[32]
  GI50: 395 nM
  TGI: > 100000 nM
[33]
  GI50: 346 nM
  TGI: 2730 nM
[34]
  GI50: 665 nM
  TGI: > 100000 nM
[35]
  GI50: 898 nM
  TGI: 6920 nM
[36]
  GI50: 1790 nM
  TGI: 5930 nM
[37]
  GI50: 492 nM
  TGI: 4230 nM
[38]
  GI50: 2140 nM
  TGI: 5390 nM
[39]
  GI50: 1670 nM
  TGI: 5970 nM
[40]
  GI50: 1060 nM
  TGI: > 100000 nM
[41]
  GI50: 1720 nM
  TGI: 6610 nM
[42]
  GI50: 1570 nM
  TGI: 3180 nM
[43]
  GI50: 683 nM
  TGI: 2530 nM
[44]
  GI50: 431 nM
  TGI: 3420 nM
[45]
  GI50: 657 nM
  TGI: 3480 nM
[46]
  GI50: 1740 nM
  TGI: > 100000 nM
[47]
  GI50: 1290 nM
  TGI: 6130 nM
[48]
  GI50: 1720 nM
  TGI: 7100 nM
[49]
  GI50: 1510 nM
  TGI: 4430 nM
[50]
  GI50: 709 nM
  TGI: > 28900 nM
[51]
  GI50: 511 nM
  TGI: 4650 nM
[52]
  GI50: 2430 nM
  TGI: 6630 nM
[53]
  GI50: 1090 nM
  TGI: 2480 nM
[54]
  GI50: 3080 nM
  TGI: > 100000 nM
[55]
  GI50: 514 nM
  TGI: > 100000 nM
[56]
  GI50: 788 nM
  TGI: 2310 nM
[57]
  GI50: 498 nM
  TGI: > 100000 nM
